Test results as given in BindingDB's records for doi:10.1016/s0960-894x(01)00026-9 (University of Minnesota, 2001).

Key:
[1] = Inhibitory concentration against Protein phosphatase 2A (25 nM) isolated from bovine myocardial tissue
[2] = biological target: Serine/threonine-protein phosphatase PP1 catalytic subunit (Oryctolagus cuniculus); test: Inhibitory concentration against Protein phosphatase 1(10 nM) isolated from rabbit muscle

IC50 [1] [µM] | IC50 [2] [µM] | SMILES
> 1000 | – | C=C1[C@@H](O)[C@@H]2O[C@]3(CCCO3)CC[C@H]2O[C@@H]1[C@@H](O)C[C@H](C)[C@H]1O[C@@]2(CCCCO2)CC[C@H]1C [okadaic acid analogue]
0.304 | 94 | C=C1[C@@H](O)[C@@H]2O[C@]3(CC[C@H](/C=C/[C@@H](C)[C@@H]4CC(C)=C[C@@]5(O[C@H](C[C@@](C)(O)C(=O)O)CC[C@H]5O)O4)O3)CC[C@H]2O[C@@H]1CO [okadaic acid analogue]

SMILES | IC50 [1] [µM] | IC50 [2] [µM]
C=C1[C@@H](O)[C@@H]2O[C@]3(CC[C@H](/C=C/[C@@H](C)[C@@H]4CC(C)=C[C@@]5(O[C@H](C[C@@](C)(O)C(=O)O)CC[C@H]5O)O4)O3)CC[C@H]2O[C@@H]1[C@@H](O)C[C@H](C)[C@H]1O[C@@]2(CCCCO2)CC[C@H]1C [okadaic acid analogue] | 0.007 | –
